One compound from PMC11054303, “Design and Synthesis of Novel N-Benzylidene Derivatives of 3-Amino-4-imino-3,5-dihydro-4H-chromeno[2,3-d]pyrimidine under Microwave, In Silico ADME Predictions, In Vitro Antitumoral Activities and In Vivo Toxicity” (Pharmaceuticals, 2024) can be followed below.

Entries after “also recorded” stand apart in the source; their conditions may differ.

In general, IC50 refers to the midpoint of a concentration-inhibition curve. A higher IC50 goes with a need for much substance.

Experiment [1] deals with MCF7. The experiment is described as follows: Antiproliferative assay, MCF7. It is filed as cell-based, human. The procedure:
The potential antiproliferative activity of these novel 3-(N-phenylmethyliden)amino-4-imino-3,5-dihydro-4H-chromeno[2,3-d]pyrimidine 10(a-i) and 10-(N-phenylmethyliden)amino-11-imino-11H-naphto[1′,2′:5,6]pyrano[2,3-d]pyrimidine 10(j-l) was evaluated in a panel of eight tumoral cell lines and in diploid skin fibroblasts used as normal cell lines for control. For these antitumor assays, chosen cell lines represent diverse types of human cancer, which are, respectively, human hepatocellular carcinoma (Huh7 D12), human colon adenocarcinoma (Caco2), human breast adenocarcinoma (MDA-MB231), MDA-MB468 for human breast carcinoma which correspond to the Triple Negative Breast Cancer (TNBC), human colon carcinoma (HCT116), PC3 as cell line initiated from bone metastasis of grade IV prostatic adenocarcinoma from a person, MCF7 as breast cancer line isolated from a person and PANC1, as human pancreatic cancer cell line. The potential antiproliferative activity was preliminarily evaluated in vitro at a 25 μM single dose.
The IC50 was calculated from the full dose-response curve and used as a parameter for the antiproliferative activity of the new compounds.
Skin diploid fibroblastic cells were provided by BIOPREDIC International Company (Rennes, France). Huh-7D12 (Ref ECACC: 01042712), Caco2 (Ref ECACC: 86010202), MDA-MB-231 (Ref ECACC: 92020424), MDA-MB-468, HCT-116 (Ref ECACC: 91091005), PC3 (Ref ECACC: 90112714), and MCF7 cell lines were obtained from the ECACC collection. PANC1 cell lines, a generous gift of LBAI Inserm 1227 (Brest, France). Cells were grown according to ECACC recommendations in DMEM for Huh-D12, MDA-MB-231, MDA-MB-468 and fibroblast, in EMEM for Caco2, in McCoy’s for HCT-116 and RPMI for PC3 at 37 °C and 5% CO2. All culture media with 10% of FBS, 1% of penicillin-streptomycin and 2 mM glutamine.
Chemicals were solubilized in DMSO at a concentration of 10 mM (stock solution) and diluted in a culture medium to the desired final concentrations. […] The toxicity test of the chemicals on these cells was as follows: 2 × 10^3 cells for HCT-116 cells or 4 × 10^3 for the other cells were seeded in 96-multi-well plates in triplicate and left for 24 h for attachment, spreading and growing. Then, cells were exposed for 48 h to increasing concentrations of chemicals, ranging from 0.1 μM to 25 μM, in a final volume of 120 μL of culture medium. After 48 h of treatment, cells were washed in PBS and fixed in a cooled 90% ethanol/5% acetic acid solution for 20 min. The nuclei were stained with Hoechst 3342 (B2261 Merck Sigma-Aldrich) and counted. Image acquisition and analysis were performed using automated imaging analysis with a Cellomics Arrayscan VTI/HCS Reader (Thermo/Scientific, Waltham, MA, USA). The survival percentages were calculated as the percentage of cell number after chemical treatment over cell number after DMSO treatment. The IC50 was graphically determined.

Experiment [2] deals with zebrafish Danio rerio embryos. The experiment is described as follows: Angiogenesis of vessels in mCherry transgenic zebrafish embryos. It is filed as in vivo. From the text: Another interest of zebrafish Danio rerio is the possibility to deeply evaluate the effects of angiogenic compounds. In our model, the formation of most vessels is complete, the circulation is present, and the heart is beating after 28 hpf of development. Angiogenesis begins in the somites and in the anterior portion of the embryos. Many zebrafish blood vessels form by angiogenic sprouting and appear to require the same proteins required for blood vessel growth in mammals. By using the mCherry line transgenic zebrafish, it is possible to analyze the direct effect of a compound on the angiogenesis of dorsal vessels. Zebrafish embryos can survive up to a week without an intact circulatory system because defective vessel formation has no immediate lethal effect.
These experiments were performed in four technical replicates.

For `COc1cccc2c1Oc1ncn(/N=C/c3ccccc3O)c(=N)c1C2` [10h, (3E) 3-N-(2-Hydroxyphenylmethylidene)amino-4-imino-9-methoxy-3,5-dihydro-4H-chromeno[2,3-d]pyrimidine], in experiment [1] (Homo sapiens, MCF7, 48 h incubation, average of three assays, standard error ± 0.5 μM), the IC50 amounted to 0.27 µM. Also, the “Selectivity Index (SI) MCF7” value in experiment [1] (SI = IC50 fibroblasts/IC50 on MCF7) is listed as over 92.6. For the same compound, the “effect on vessel angiogenesis” value is given as “no angiogenic effect; also recorded: cannot observe an anti-angiogenic effect; also recorded: without delay in vessel angiogenesis” in experiment [2] (5 μM dose at 72 hpf); “without delay in vessel angiogenesis” in experiment [2] (48 and 72 hpf treatment, up to 5 μM).
